Here are results for nine compounds from patent US20190209645A1, “POTENTIATION OF ANTIBIOTIC ACTIVITY BY A NOVEL CATIONIC PEPTIDE, SPR741” (priority 2016, published 2019).

Assay [1] concerns Klebsiella pneumoniae (Kp) MDR and clinical isolates. The experiment in a line: Susceptibility testing (MIC, CLSI M7-A10) of antibiotics with SPR741. Format: cell-based. The note with it: for order of potentiation of the antibiotics by SPR741: 25 Kp isolates, Mueller-Hinton broth-II with 0, 2 or 8 μg/mL SPR741. Here is the method:
(§1) Assays were performed against 25 Escherichia coli (Ec), 25 Klebsiella pneumoniae (Kp), and 17 Acinetobacter baumannii (Ab) MDR and clinical isolates, in Mueller-Hinton broth-II (cation adjusted) containing 0, 2 or 8 μg/mL SPR741. The minimum inhibitory concentration (MIC) was defined as the lowest concentration of antibiotic required to inhibit visible bacterial growth. MIC values were determined for each antibiotic/SPR741 combination and maximum reductions in MIC of the antibiotic in the combination were determined.

For assay [2], the system named is Acinetobacter baumannii (Ab) MDR and clinical isolates. The assay is described as above. Format: cell-based. The settings on record: for order of potentiation of the antibiotics by SPR741: 17 Ab isolates, Mueller-Hinton broth-II with 0, 2 or 8 μg/mL SPR741. Here is the method: as §1
Assay [3] relates to Escherichia coli (Ec) MDR and clinical isolates. Described as above. The note with it: for order of potentiation of the antibiotics by SPR741: 25 Ec isolates, Mueller-Hinton broth-II with 0, 2 or 8 μg/mL SPR741. Format: cell-based. On the procedure: as §1
Assay [4] in a line: Minimum bactericidal concentration of combinations in the presence of 5% surfactant (Survanta). Format: cell-based. The note with it: in combination with SPR741; with or without 5% Survanta. Here is the method:
(§2) Efficacy was assessed in checkerboard assays. The minimum inhibitory concentration (MIC) of SPR741, antibiotics, and combinations thereof was defined as the lowest concentration that inhibited growth of Ec ATCC 25922, Ab NCTC 12156 and Kp ATCC 43816. Ec BW25113, ΔtolC and ΔacrA were used to assess the contribution of the multi drug efflux pump AcrAB-TolC to susceptibility to the combinations. Interactions were assessed by calculating fractional inhibitory concentration indices (FICI) for each combination in which the MIC differed from compounds in isolation. Interactions were defined as: FICI>4, antagonism; 0.5-4, no interaction; <0.5, synergy. The minimum bactericidal concentration of combinations in the presence of 5% surfactant (Survanta) was also determined.

Assay [5] deals with Ec BW25113, ΔtolC and ΔacrA. In words: Contribution of efflux pump AcrAB-TolC to susceptibility to the combinations. Format: cell-based, Escherichia coli. Here is the method:
as §2

The test system of a further assay is Gram negative bacteria. The note with it: previously shown; cited from earlier work.
[6] abbreviates: Kp isolates, in combination with SPR741.

Molecules are shown by their SMILES. Bridge positions count the residues as written; N and C are the ends. Square brackets hold non-standard residues; d marks the D form. Peptide text beside a SMILES is read from it. Dab = NCC[C@H](N)C(=O)O

For the compound `CC(=O)O[C@H]1C[C@@]2(C)[C@@H](C[C@@H](O)[C@H]3[C@@]4(C)CC[C@@H](O)[C@@H](C)[C@@H]4CC[C@@]32C)/C1=C(\CCC=C(C)C)C(=O)O` [FA, fusidic acid], the entries for the “order of potentiation of the antibiotics by SPR741” value (“order” below) in assay [1], in assay [2] and in assay [3] were “RET>RIF=AZ=CLR>MUP>MEM=FA>AZT”, “FA>RIF>CLR>RET>MEM>AZ>AZT>MUP” and “RIF>MUP=FA>AZ=RET>AZT>MEM=CLR”, respectively.
On the same counts, the results for `C/C(=C\C(=O)OCCCCCCCCC(=O)O)C[C@@H]1OC[C@H](C[C@@H]2O[C@H]2[C@@H](C)[C@H](C)O)[C@@H](O)[C@H]1O` [MUP, mupirocin] are “RET>RIF=AZ=CLR>MUP>MEM=FA>AZT”, “FA>RIF>CLR>RET>MEM>AZ>AZT>MUP” and “RIF>MUP=FA>AZ=RET>AZT>MEM=CLR”.
The corresponding values for `C[C@@H](O)[C@H]1C(=O)N2C(C(=O)O)=C(S[C@@H]3CN[C@H](C(=O)N(C)C)C3)[C@H](C)[C@H]12` [MEM, meropenem] are “RET>RIF=AZ=CLR>MUP>MEM=FA>AZT”, “FA>RIF>CLR>RET>MEM>AZ>AZT>MUP” and “RIF>MUP=FA>AZ=RET>AZT>MEM=CLR”.
Regarding `CC[C@H]1OC(=O)[C@H](C)[C@@H](O[C@H]2C[C@@](C)(OC)[C@@H](O)[C@H](C)O2)[C@H](C)[C@@H](O[C@@H]2O[C@H](C)C[C@H](N(C)C)[C@H]2O)[C@](C)(OC)C[C@@H](C)C(=O)[C@H](C)[C@@H](O)[C@]1(C)O` [CLR, clarithromycin], the “order” value in assay [1] was “RET>RIF=AZ=CLR>MUP>MEM=FA>AZT”; in assay [2] it was “FA>RIF>CLR>RET>MEM>AZ>AZT>MUP”; in assay [3] it was “RIF>MUP=FA>AZ=RET>AZT>MEM=CLR”. Further, the “bactericidal activity (minimum bactericidal concentration) of the combination” value in assay [4] was “bactericidal at concentrations similar to the MIC irrespective of the presence of Survanta”.
For the compound `CC(=O)N[C@H](C(=O)N[C@H](CO)C(=O)N[C@H]1CCNC(=O)[C@H]([C@@H](C)O)NC(=O)[C@H](CCN)NC(=O)[C@H](CCN)NC(=O)[C@H](CC(C)C)NC(=O)[C@@H](Cc2ccccc2)NC(=O)[C@H](CCN)NC1=O)[C@@H](C)O` [SPR741, Acetyl-Thr-dSer-cy[Dab-Dab-dPhe-Leu-Dab-Dab-Thr]] (Ac-T[dS][Dab][Dab][dF]L[Dab][Dab]T; lactam 3-C), the “potentiation of antibiotics that are AcrAB-TolC substrates” value in assay [5] is “able to potentiate antibiotics that are substrates of AcrAB-TolC”. Moreover, the “effect of SPR741 on MIC of antibiotics” value in assay [1] (MDR isolates of Kp), in assay [2] (MDR isolates of Ab) and in assay [3] (MDR isolates of Ec) was “effectively reduced the MIC of currently utilized antibiotics” in each case. In addition, in the assay with Gram negative bacteria, the “sensitisation of bacteria to antibiotics” value was “increase the sensitivity of certain bacteria to Mupirocin, Azithromycin, Fusidic Acid, and Vancomycin”.
As for `CC[C@H]1OC(=O)[C@H](C)[C@@H](O[C@H]2C[C@@](C)(OC)[C@@H](O)[C@H](C)O2)[C@H](C)[C@@H](O[C@@H]2O[C@H](C)C[C@H](N(C)C)[C@H]2O)[C@](C)(O)C[C@@H](C)CN(C)[C@H](C)[C@@H](O)[C@]1(C)O` [AZ, azithromycin], the results for the “order” value in assay [1], in assay [2] and in assay [3] were “RET>RIF=AZ=CLR>MUP>MEM=FA>AZT”, “FA>RIF>CLR>RET>MEM>AZ>AZT>MUP” and “RIF>MUP=FA>AZ=RET>AZT>MEM=CLR”, respectively.
Consider `CO[C@H]1/C=C/O[C@@]2(C)Oc3c(C)c(O)c4c(O)c(c(/C=N/N5CCN(C)CC5)c(O)c4c3C2=O)NC(=O)/C(C)=C\C=C\[C@H](C)[C@H](O)[C@@H](C)[C@@H](O)[C@@H](C)[C@H](OC(C)=O)[C@@H]1C` [RIF, rifampicin], for which the “maximum MIC reduction” value in assay [3] (Ec isolates, in combination with SPR741) is given as more than 2000 fold. Also, the “MIC of antibiotic alone” value in assay [3] (Ec isolates, without SPR741) was more than 128 µg/mL.
Take `C[C@H]1[C@H](NC(=O)/C(=N\OC(C)(C)C(=O)O)c2csc(N)n2)C(=O)N1S(=O)(=O)O` [AZT, aztreonam]: the figures for the “order” value in assay [2] and in assay [3] were “FA>RIF>CLR>RET>MEM>AZ>AZT>MUP” and “RIF>MUP=FA>AZ=RET>AZT>MEM=CLR”, respectively.
With `C=C[C@]1(C)C[C@@H](OC(=O)CS[C@@H]2C[C@H]3CC[C@@H](C2)N3C)[C@]2(C)[C@H](C)CC[C@]3(CCC(=O)[C@H]32)[C@@H](C)[C@@H]1O` [RET, retapamulin], the “order” value is recorded as “RET>RIF=AZ=CLR>MUP>MEM=FA>AZT” in assay [1], “FA>RIF>CLR>RET>MEM>AZ>AZT>MUP” in assay [2] and “RIF>MUP=FA>AZ=RET>AZT>MEM=CLR” in assay [3]. Further, the “MIC of antibiotic in the combination” value in assay [1] (setting [6]) stood at 4 µg/mL. Moreover, the MIC reduction in assay [1] (setting [6]) is listed as 32 fold. The “MIC of antibiotic alone” value in assay [1] (Kp isolates, without SPR741) was determined as 128 µg/mL.
